Earlier results, collected in patent US10813877B2, “Oral care products and methods” (MGE HOLDINGS LLC, priority 2016, dated 2020).

System: cells
Conditions: ex vivo

SMILES: [H]/N=C(\N/C(=N/[H])NCCCCCCNC(=N)NC(=N)Nc1ccc(Cl)cc1)Nc1ccc(Cl)cc1 [chlorhexidine]
- cytotoxic effect on cells: cytotoxic effect
